Our source for the IC50 values is PubChem BioAssay AID489026 (Sanford-Burnham Center for Chemical Genomics, 2010).

The assay deals with HEK-293T cytotoxicity, luminescence viability. Nature of the assay: cytotoxicity in HEK-293T cells, dose response, cytotoxicity control, luminescence, T-cell screen hits (AID 489026).

The source made the active and inactive calls. How the calls were made is not given here.

Consider `C=C(C=O)C[C@@H]1C[C@H](O)C2OC3C[C@]4(C)OC5/C=C\CC6OC7C(CC=CCC6OC5CCCC4OC3CC2O1)OC1CC2OC3CC(=O)OC3C[C@@H](C)C[C@@]2(C)OC1C[C@@H]7C` (some centres not stated), for which the IC50 – broadly, the concentration at which inhibition is half-maximal – is 39.8 µM (inactive).

As for `C[C@@H]1O[C@@H](O[C@H]2C[C@@H](O)[C@]3(CO)[C@@H]4C(CC[C@]3(O)C2)[C@@]2(O)CC[C@H](C3COC(=O)C3)[C@@]2(C)C[C@H]4O)[C@H](O)[C@H](O)[C@H]1O` (some centres not stated), the IC50 was > 80 µM (inactive).
